One assay has as its target T1, Calpain I (Homo sapiens, UniProt P07384).
T1 construct: Calpain I was purified from human red blood cells; from tissue; host or cells: human red blood cells (packed, outdated)
T1 sequence (P07384 1-714): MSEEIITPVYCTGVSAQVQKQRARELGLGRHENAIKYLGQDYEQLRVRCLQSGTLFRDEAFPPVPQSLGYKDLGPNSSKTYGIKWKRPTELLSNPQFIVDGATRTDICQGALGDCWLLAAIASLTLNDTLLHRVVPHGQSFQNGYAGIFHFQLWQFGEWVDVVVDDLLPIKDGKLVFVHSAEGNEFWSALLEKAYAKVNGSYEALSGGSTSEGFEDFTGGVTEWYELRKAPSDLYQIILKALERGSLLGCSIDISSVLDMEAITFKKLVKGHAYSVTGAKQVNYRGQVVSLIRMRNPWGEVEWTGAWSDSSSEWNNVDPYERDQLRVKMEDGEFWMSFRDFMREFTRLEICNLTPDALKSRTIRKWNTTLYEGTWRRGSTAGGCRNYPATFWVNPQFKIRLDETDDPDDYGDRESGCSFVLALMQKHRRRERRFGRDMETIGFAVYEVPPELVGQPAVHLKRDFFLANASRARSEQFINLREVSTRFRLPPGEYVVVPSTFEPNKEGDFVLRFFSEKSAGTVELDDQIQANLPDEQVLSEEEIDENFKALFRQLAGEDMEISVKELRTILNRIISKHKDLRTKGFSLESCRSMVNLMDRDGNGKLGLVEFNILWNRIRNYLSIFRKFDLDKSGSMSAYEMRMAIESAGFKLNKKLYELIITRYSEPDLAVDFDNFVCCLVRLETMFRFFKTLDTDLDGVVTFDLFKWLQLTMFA
T1 sequence (P04632 1-268 partner): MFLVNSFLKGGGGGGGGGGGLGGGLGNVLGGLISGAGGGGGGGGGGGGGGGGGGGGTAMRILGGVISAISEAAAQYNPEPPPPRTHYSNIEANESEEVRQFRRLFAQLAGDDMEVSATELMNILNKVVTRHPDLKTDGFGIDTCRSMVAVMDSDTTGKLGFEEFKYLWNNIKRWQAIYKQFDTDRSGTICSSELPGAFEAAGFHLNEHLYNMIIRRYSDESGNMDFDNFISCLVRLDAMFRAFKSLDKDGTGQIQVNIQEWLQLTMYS
Description: Inhibition and rate of inactivation of calpain I (Succ-Leu-Tyr-MNA hydrolysis). Format: biochemical. As to conditions: mean of three or more independent analyses, corrected for substrate, k2 = kapp(1+[S]/Km), read-out: k2 (second order rate constant of inactivation), A = Calpain I. The protocol:
To evaluate inhibitory activity of our compounds, stocks (40 times concentrated) of each compound to be tested were prepared in 100% anhydrous dimethyl sulfoxide (DMSO) and 5 μl of each inhibitor preparation was aliquoted into each of three wells of a 96 well plate. Calpain I was purified from human red blood cells using a modification of the method described by Lee, W. J. et al. (Biochem. Internatl. (1990)22(1): 163-171). Briefly, 3 units of packed outdated red blood cells were washed 3× by repeated centrifugation at 500 rpm for 10 minutes through 900 mls of 0.9% NaCl. Cells were lysed in 20 mM Tris/1 mM EDTA/1 mM EGTA/5 mM mercaptoethanol (Buffer A) and centrifuged for 1 hour at 12,000 rpm in a GSA rotor using a Sorval centrifuge. The supernatant was collected and applied to a DEAE-sepharose FF column equilibrated in Buffer A+25 mM NaCl. After washing the column in Buffer A+25 mM NaCl, the bound protein was eluted at 117 ml/hr with a 25 mM to 150 mM NaCl linear gradient in Buffer A collecting 200, 10 mL fractions. Two μl of every fifth fraction was applied to nitrocelluose using a dot blot apparatus and calpain containing fractions identified by Western analysis. For detection of calpain, nitrocellulose sheets were first blocked in 5% Blotto (5% Carnation instant milk/10 mM Tris/[…]150 mM NaCl) for 30 minutes, followed by incubation for 1 hour in antibody directed against Calpain I (rabbit anti-human calpain I polyclonal sera, 1:1000 dilution in 5% Blotto). After three 5 minutes washes in 10 mM Tris/150 mM NaCl/0.05% Tween 20 the nitrocellulose was incubated for 1 hour in secondary alkaline phosphatase conjugated antibody (Biorad Cat#170-6518 1:2000 in 5% Blotto). After three 5 minutes washes in 10 mM Tris/150 mM NaCl/0.05% Tween 20 and 1 wash in 10 mM Tris/150 mM NaCl the nitrocellulose was incubated for up to 2 hours in a colorimetric substrate solution (Biorad Alkaline Phosphatase Substrate conjugate kit, cat#170-6432). The reaction was stopped by washing in water. After fractions containing calpain, and those in between, were pooled, solid ammonium sulfate was added to achieve a 30% solution and the mixture stirred for 1 hour at 4° C. Following collection of the precipitate by centrifugation for 1 hour at 4° C. at 12K rpm in a GSA rotor, the supernatant was collected and brought to 45% in ammonium sulfate. After stirring for 1 hour at 4° C., centrifugation was repeated. The supernatant was discarded and the precipitate resuspended in approximately 7 mls and dialyzed overnight at 4° C. against Buffer A+50 mM NaCl. The sample was then applied to a S300 gel filtration column preequilibrated in Buffer A+50 mM NaCl, washed and eluted at a flow rate of 20 ml/hr, collecting 200, 4 ml fractions. The peak of calpain was determined by assaying aliquots of every fifth fraction for enzyme activity monitored by the hydrolysis of a fluorogenic dipeptide substrate as described below. The peak fractions were pooled and the enzyme preparation used to test compounds for inhibitory activity. As an alternate to enzyme isolated from tissue sources, recombinant human calpain I has also been used to monitor compounds for inhibitory activity.
The foregoing enzyme preparation was diluted into assay buffer (i.e., 50 mM Tris, 50 mM NaCl, 1 mM EDTA, 1 mM EGTA, and 5 mM β-mercaptoethanol, pH 7.5 including 0.2 mM Succ-Leu-Tyr-MNA) and 175 μl aliquoted into the same wells containing the independent inhibitor stocks as well as to positive control wells containing 5 μl DMSO, but no compound. To start the reaction, 20 μl of 50 mM CaCl2 in assay buffer was added to all wells of the plate, excepting three, which were used as background signal baseline controls. Substrate hydrolysis was monitored every 5 minutes for a total of 30 minutes using Flouroskan II (ex=340 nm; em=430 nm). Substrate hydrolysis in the absence of inhibitor was linear for up to 15 minutes. […]

For a further assay, the target named is T2, Cathepsin B (Homo sapiens, UniProt P07858).
T2 construct: purchased Calbiochem 219364
The assay is described as follows: Inhibition and rate of inactivation of cathepsin B (Cbz-Phe-Arg-AMC hydrolysis). Format: biochemical. As to conditions: pH 6.0, 0.1 mM substrate, read-out: k2 (second order rate constant of inactivation), C = Cathepsin B. The protocol: Additionally, the order of reagents added to the plate was altered because both enzymes are constitutively active. Following inhibitor addition to the plates appropriate 2× concentrated stock dilutions of the enzyme preparations were made in assay buffer and 100 ul added to each well. The assay was initiated by addition of 100 ul of 2× concentrated stock dilution of substrate in assay buffer. Substrate hydrolysis was monitored using a Fluroskan II (ex=390 nm; em=460 nm).
Inhibition of enzyme activity was calculated as the percent decrease in the rate of substrate hydrolysis in the presence of inhibitor (.upsilon.i) relative to the rate in its absence (.upsilon.o). Comparison between .upsilon.o and .upsilon.i was made within the linear range for substrate hydrolysis. For screening, compounds were tested at 10 μM. Compounds having ≥50% inhibition at 10 μM were considered active. Apparent second order rate constants were determined from analysis of reaction progress curves under pseudo-first order conditions. Each determination represents the mean of three or more independent single cuvette analyses continually monitored via a Perkin-Elmer LS50B spectrofluorimeter. The rate of inhibition of hydrolysis was obtained by fitting the curve to the exponential equation (1):
y=Ae^-k.spsb.obs·t +B (1)
where y (Pt) is the product formed at time t. A and B are constants. A, the amplitude of the reaction, is given by [Po -P.varies. ] and B (=P.varies.) is the maximal product formed when the reaction is […]. This was corrected for the presence of equation (2): […]

The next assay deals with T3, α-chymotrypsin (Bos taurus, UniProt P00766).
T3 construct: purchased Sigma Chem. Co. C-3142
The assay is described as follows: Inhibition of the serine protease α-chymotrypsin (Succ-Ala-Ala-Pro-Phe-AMC hydrolysis). Format: biochemical. As to conditions: pH 7.5, 0.03 mM substrate. As for the experimental part: Additionally,because α-chymotrypsin is not a calcium sensitive enzyme and is constituitively active, following addition of inhibitor stocks to the 96 well plates, 100 ul of a 2 fold concentrated stock of enzyme in dilution buffer was first added and the reaction started by addition of 100 ul of a 2 fold concentrated stock of substrate in assay buffer. Substrate hydrolysis was monitored every 5 minutes up to 30 minutes using a Fluoroskan II ([…]).

Assay [1] relates to calpain I in Molt-4 cells (α-spectrin breakdown products). The assay is described as follows: Inhibition of calpain activation in intact Molt-4 cells (calpain-generated spectrin breakdown products). Format: cell-based. As to conditions: Homo sapiens, calcium and ionophore (ionomycin), read-out: % Inhibition of BDPs (10 μM).

In general, inhibition refers to the relative decrease from the control value, in per cent. As for `CC(C)C[C@H](NC(=O)OCc1ccccc1)C(=O)N[C@@H](Cc1ccccc1)C(=O)COn1nnc2ccc(C(F)(F)F)cc21` [Example 7, 1-[N-[N-Benzyloxycarbonyl-L-leucyl]-3S-4-phenyl-3-amino-2-oxobutyloxy]-6'-trifluoromethylbenzotriazole], the kinact/KI came out at 160000 M⁻¹ s⁻¹ on Calpain I and 18000 M⁻¹ s⁻¹ on Cathepsin B. Also, the inhibition at 10 µM against α-chymotrypsin amounted to 99%.
For `CC(C)CC(CC(=O)C1c2ccccc2Oc2ccccc21)C(=O)N[C@@H](CC(C)C)C(=O)COn1nnc2ccccc21` (stereo partly drawn) [Example 40], the figures for the kinact/KI on Calpain I and at Cathepsin B were 2700 M⁻¹ s⁻¹ and 48000 M⁻¹ s⁻¹, respectively. At α-chymotrypsin, this molecule displayed an inhibition at 10 µM of 100%.
On to `Cc1cc2nnn(OCC(=O)[C@H](Cc3ccccc3)NC(=O)[C@H](CC(C)C)NC(=O)OCc3ccccc3)c2cc1Cl` [Example 11, 1-[N-[N-Benzyloxycarbonyl-L-leucyl]-3S-4-phenyl-3-amino-2-oxobutyloxy]-6'-chloro-5'-methylbenzotriazole], for which the kinact/KI stood at 98000 M⁻¹ s⁻¹ on Calpain I and 28000 M⁻¹ s⁻¹ at Cathepsin B. At 10 µM the inhibition on α-chymotrypsin was 100%.
As to `CC(C)C[C@H](NC(=O)OCc1ccccc1)C(=O)N[C@@H](Cc1ccccc1)C(=O)COn1nnc2c(F)c(F)c(F)c(F)c21` [Example 16, 1-[N-[N-Benzyloxycarbonyl-L-leucyl]-3S-4-phenyl-3-amino-2-oxybutyloxy]-4',5',6',7'-tetrafluorobenzotriazole], the kinact/KI at Calpain I stood at 93000 M⁻¹ s⁻¹. Besides, in assay [1], the inhibition at 10 µM was 64%.
For `CC(C)C[C@H](NC(=O)OCc1ccccc1)C(=O)N[C@@H](Cc1ccccc1)C(=O)COn1nnc2ccc(Cl)cc21` [Example 8, 1-[N-[N-Benzyloxycarbonyl-L-leucyl]-3S-4-phenyl-3-amino-2-oxybutyloxy]-6'-chlorobenzotriazole], the kinact/KI at Calpain I was 101000 M⁻¹ s⁻¹. In assay [1], the inhibition at 10 µM was determined as 57%.
As to `CC(C)CC(CC(=O)C1c2ccccc2Oc2ccccc21)C(=O)N[C@@H](Cc1ccccc1)C(=O)COn1nnc2ccccc21` (stereo partly drawn) [Example 39, 1-[N-[2-(2-Methylpropyl)-1,4-dioxo-4-(xanthen-9-yl)butyl]-3S-3-amino-2-oxo-4-phenylbutyloxy]benzotriazole], the kinact/KI was 46000 M⁻¹ s⁻¹ on Calpain I and 55000 M⁻¹ s⁻¹ at Cathepsin B. Besides, the inhibition at 10 µM at α-chymotrypsin came to 100%.
`COc1ccc2nnn(OCC(=O)[C@H](Cc3ccccc3)NC(=O)[C@H](CC(C)C)NC(=O)OCc3ccccc3)c2c1` [Example 9, 1-[N-[N-Benzyloxycarbonyl-L-leucyl]-3S-4-phenyl-3-amino-2-oxobutyloxy]-6'-methoxybenzotriazole]: the kinact/KI on Calpain I was found to be 125000 M⁻¹ s⁻¹; on Cathepsin B, 52000 M⁻¹ s⁻¹. This molecule also showed an inhibition at 10 µM against α-chymotrypsin of 83%.
On to `CC(C)C[C@H](NC(=O)OCc1ccccc1)C(=O)N[C@@H](Cc1ccccc1)C(=O)COn1nnc2ccc(F)cc21` [Example 10, 1-[N-[N-Benzyloxycarbonyl-L-leucyl]-3S-4-phenyl-3-amino-2-oxobutyloxy]-6'-fluorobenzotriazole], for which the kinact/KI at Calpain I is 50000 M⁻¹ s⁻¹. Further, testing at 10 µM against α-chymotrypsin gave an inhibition of 89%.
With `CC(C)C[C@H](NC(=O)OCc1ccccc1)C(=O)N[C@@H](Cc1ccccc1)C(=O)COn1nnc2ncccc21` [Example 19, 1-[N-[N-Benzyloxycarbonyl-L-leucyl]-3S-4-phenyl-3-amino-2-oxybutyloxy]-(1H)-triazolo[4,5-b]pyridine], the kinact/KI on Calpain I turned out to be 57000 M⁻¹ s⁻¹. Moreover, in assay [1], the inhibition at 10 µM came to 54%.
On to `Cc1cc2c(cc1Cl)nnn2OCC(=O)[C@H](Cc1ccccc1)NC(=O)[C@H](CC(C)C)NC(=O)OCc1ccccc1` [Example 13, 1-[N-[N-Benzyloxycarbonyl-L-leucyl]-3S-4-phenyl-3-amino-2-oxobutyloxy]-5'-chloro-6'methylbenzotriazole], for which the kinact/KI stood at 116000 M⁻¹ s⁻¹ on Calpain I and 29000 M⁻¹ s⁻¹ at Cathepsin B.
For `Cc1cccc2c1nnn2OCC(=O)[C@H](Cc1ccccc1)NC(=O)[C@H](CC(C)C)NC(=O)OCc1ccccc1` [Example 12, 1-[N-[N-Benzyloxycarbonyl-L-leucyl]-3S-4-phenyl-3-amino-2-oxobutyloxy]-4'-methylbenzotriazole], the kinact/KI at Calpain I was 46000 M⁻¹ s⁻¹. Also, the inhibition at 10 µM against α-chymotrypsin stood at 94%.

For the origin of these results see US5658906A, “Cysteine protease and serine protease inhibitors” (Cephalon, Inc., priority 1996, dated 1997).
